Data from ChEMBL document CHEMBL5543082, “In vitro and in vivo anti-pigmentation effects of 2-mercaptobenzimidazoles as nanomolar tyrosinase inhibitors on mammalian cells and zebrafish embryos: Preparation of pigment-free zebrafish embryos” (Eur J Med Chem, 2024).
Activity calls are given as the source filed them. No cut-off for these calls is given here.

Key:
[1] = Antioxidant activity assessed as reduction in H2O2 induced hydroxyl radical production at 40 uM; assay type: functional
[2] = Antioxidant activity assessed as reduction in FeSO4 induced hydroxyl radical production at 40 uM; assay type: functional
Danio rerio = experiment: Depigmentation activity in zebrafish embryos administered at 21 hpf and measured after 69 hpf; assay type: functional, organism-based; conditions: dose 0.01-0.4 mM, time […]
Mushroom tyrosinase [3] = molecular target: T1, Mushroom tyrosinase (Agaricus bisporus, UniProt O42713+Q00024+C7FF04+C7FF05); experiment: Inhibition of mushroom tyrosinase monophenolase activity using L-tyrosine as substrate incubated for 0.5 hrs; assay type: protein assay
Mushroom tyrosinase [4] = molecular target: T1, Mushroom tyrosinase; experiment: Inhibition of mushroom tyrosinase diphenolase activity using L-dopa as substrate incubated for 0.5 hrs; assay type: protein assay
B16-F10 [5] = experiment: Cytotoxicity against mouse B16-F10 cells at <= 20 uM after 72 hrs by EZ-Cytox solution based microplate reader assay; assay type: toxicity, cell-based; conditions: b16-f10, 72 h
HaCaT = experiment: Cytotoxicity against human HaCaT cells at <= 20 uM after 24 hrs by EZ-Cytox solution based microplate reader assay; assay type: toxicity, cell-based
B16-F10 [6] = experiment: Inhibition of melanin production in mouse B16-F10 cells preincubated for 1 hr followed by alpha-MSH and IBMX addition and measured after 72 hrs; assay type: functional, cell-based; conditions: dose 5-20 µM, time 73.0 hrs
[7] = molecular target: T2, Tyrosinase (Mus musculus) (UniProt P11344); experiment: Inhibition of tyrosinase activity in mouse B16-F10 cells preincubated for 1 hr followed by alpha-MSH and IBMX addition and measured after 72 hrs; assay type: cell-based; conditions: time 73.0 hrs
T2 sequence (whole entry): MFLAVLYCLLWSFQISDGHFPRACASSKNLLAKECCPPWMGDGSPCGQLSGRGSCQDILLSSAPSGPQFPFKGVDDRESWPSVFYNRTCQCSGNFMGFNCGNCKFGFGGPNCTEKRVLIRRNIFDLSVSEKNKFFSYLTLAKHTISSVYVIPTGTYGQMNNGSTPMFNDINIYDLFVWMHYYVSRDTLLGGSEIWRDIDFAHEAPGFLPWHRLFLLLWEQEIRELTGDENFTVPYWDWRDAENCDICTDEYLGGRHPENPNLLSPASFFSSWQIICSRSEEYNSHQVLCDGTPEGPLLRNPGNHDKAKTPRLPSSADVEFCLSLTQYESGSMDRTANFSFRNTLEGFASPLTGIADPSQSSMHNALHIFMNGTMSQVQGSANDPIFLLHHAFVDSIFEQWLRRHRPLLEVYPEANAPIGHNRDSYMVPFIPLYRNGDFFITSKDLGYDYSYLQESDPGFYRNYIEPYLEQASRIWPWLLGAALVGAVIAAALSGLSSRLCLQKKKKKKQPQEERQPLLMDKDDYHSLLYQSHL

[8] = Antioxidant activity assessed as peroxynitrite scavenging activity by measuring rhodamine 123 fluorescence intensity at 50 uM in presence of SIN-1; assay type: functional

| SMILES | Activity [1] | Activity [2] | Activity (Danio rerio) | IC50 (Mushroom tyrosinase [3]) | IC50 (Mushroom tyrosinase [4]) | Activity (B16-F10 [5]) | Activity (HaCaT) | inhibition (B16-F10 [6]) | inhibition [7] | Activity [8] |
| --- | --- | --- | --- | --- | --- | --- | --- | --- | --- | --- |
| COc1ccc2[nH]c(S)nc2c1 | inactive | inactive | Dose-Dependent Effect | – | – | – | – | – | – | – |
| Cc1cccc2[nH]c(=S)[nH]c12 | inactive | inactive | Dose-Dependent Effect | 5780 nM | 740 nM | – | – | – | – | – |
| Cc1ccc2[nH]c(S)nc2c1 | – | – | – | – | – | Non-Toxic | Non-Toxic | – | – | – |
| Fc1ccc2[nH]c(S)nc2c1 | inactive | inactive | Dose-Dependent Effect | – | – | – | – | – | – | – |
| Cc1ccc2[nH]c(=S)[nH]c2c1 | inactive | inactive | Dose-Dependent Effect | – | – | – | – | Dose-Dependent Effect | Dose-Dependent Effect | – |
| O=C(c1ccccc1)c1ccc2[nH]c(S)nc2c1 | inactive | inactive | Dose-Dependent Effect | 100 nM | 20 nM | – | – | Dose-Dependent Effect | Dose-Dependent Effect | Active |
| O=[N+]([O-])c1ccc2[nH]c(S)nc2c1 | inactive | inactive | Dose-Dependent Effect | – | – | – | – | – | – | – |
| Sc1nc2cc(Cl)ccc2[nH]1 | inactive | inactive | Dose-Dependent Effect | – | – | Non-Toxic | Non-Toxic | Dose-Dependent Effect | Dose-Dependent Effect | Active |
| Cc1c(C)c2c(c(C)c1O)CCC(C)(C(=O)O)O2 (centres undefined) | Active | Active | – | – | – | – | – | – | – | Active |
| N#Cc1ccc2[nH]c(S)nc2c1 | inactive | inactive | Dose-Dependent Effect | 110 nM | 40 nM | – | – | – | – | Active |
| Cc1cc2nc(S)[nH]c2cc1C | inactive | inactive | Dose-Dependent Effect | – | – | Non-Toxic | Non-Toxic | Dose-Dependent Effect | Dose-Dependent Effect | – |
| Sc1nc2ccccc2[nH]1 | inactive | inactive | Dose-Dependent Effect | – | – | – | – | – | – | – |
| CC(C)(S)[C@@H](N)C(=O)O | – | – | – | – | – | – | – | – | – | Active |
| O=C(c1ccccc1)c1ccc2[nH]c(=S)[nH]c2c1 | – | – | – | – | – | Non-Toxic | Non-Toxic | – | – | – |
